Experimental data as given in the supplement of paper PMC10307832.

How the values were obtained:
Experiment in all cases: relative viability (nuclei count vs DMSO), 5 days (fraction); higher = more cells survive
Shikonin + Olaparib = compound: CC(C)=CC[C@@H](O)C1=CC(=O)c2c(O)ccc(O)c2C1=O [Shikonin] + O=C(c1cc(Cc2n[nH]c(=O)c3ccccc23)ccc1F)N1CCN(C(=O)C2CC2)CC1 [Olaparib] (partner 8 µM)
Outline: (§1)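 Lung cancer cell lines, seeded in 1536-well plates, were treated the following day by pin tool with a single drug or with five library-drug doses (not always all listed) in √10 steps on top of a fixed anchor-drug dose. Cells were fixed and nuclei stained in one step after 5 days, and nuclei were counted. Relative viability is the nuclei count for treated wells divided by that for vehicle wells, reported as medians of duplicate plates.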

[1] = compound: CC(C)N(CCCNC(=O)Nc1ccc(C(C)(C)C)cc1)C[C@H]1O[C@@H](n2ccc3c(N)ncnc32)[C@H](O)[C@@H]1O + CC(C)C[C@H](NC(=O)[C@H](Cc1ccccc1)NC(=O)c1cnccn1)B(O)O [Bortezomib] (partner 0.002 µM)
Outline: as §1

[2] = compound: CC(C)N(CCCNC(=O)Nc1ccc(C(C)(C)C)cc1)C[C@H]1O[C@@H](n2ccc3c(N)ncnc32)[C@H](O)[C@@H]1O + C[C@]1(O)C[C@@H](c2nc(-c3ccc4ccc(-c5ccccc5)nc4c3)c3c(N)nccn32)C1 [Linsitinib] (partner 1 µM)
Outline: as §1

Shikonin + Alpelisib = compound: CC(C)=CC[C@@H](O)C1=CC(=O)c2c(O)ccc(O)c2C1=O [Shikonin] + Cc1nc(NC(=O)N2CCC[C@H]2C(N)=O)sc1-c1ccnc(C(C)(C)C(F)(F)F)c1 [Alpelisib] (partner 2 µM)
Outline: as §1

Cell Line	relative viability (Shikonin + Olaparib; first compound 0.01 µM)	relative viability (Shikonin + Olaparib; first compound 0.1 µM)	relative viability (Shikonin + Olaparib; first compound 0.3162 µM)	relative viability (Shikonin + Olaparib; first compound 1 µM)	relative viability ([1]; first compound 0.08 µM)	relative viability ([1]; first compound 0.253 µM)	relative viability ([1]; first compound 2.53 µM)	relative viability ([1]; first compound 8 µM)	relative viability ([2]; first compound 0.08 µM)	relative viability ([2]; first compound 0.253 µM)	relative viability ([2]; first compound 2.53 µM)	relative viability ([2]; first compound 8 µM)	relative viability (Shikonin + Alpelisib; first compound 0.01 µM)	relative viability (Shikonin + Alpelisib; first compound 0.1 µM)	relative viability (Shikonin + Alpelisib; first compound 0.3162 µM)	relative viability (Shikonin + Alpelisib; first compound 1 µM)	relative viability ([1]; first compound 0.8 µM)	relative viability ([2]; first compound 0.8 µM)
ABC-1	0.78	0.894	0.948	0.637	0.28	0.249	0.344	0.325	0.978	0.95	0.709	0.905	1.17	1.3	0.901	0.514	–	–
NCI-H522	0.645	0.614	0.597	0.491	–	–	–	–	–	–	–	–	–	–	–	–	–	–
PC-3 [JPC-3]	1.08	1.16	1.33	1.27	0.79	0.927	0.749	0.815	0.97	0.94	0.919	0.897	1.04	1.11	1.05	1.08	0.317	0.876
SW 900	1.05	0.776	0.917	0.717	–	–	–	–	–	–	–	–	–	–	–	–	–	–
A549	0.351	0.454	0.305	0.302	–	–	–	–	0.561	0.554	0.679	0.635	0.789	0.81	0.708	0.753	–	0.525
A-427	0.802	0.872	0.708	0.795	0.927	0.973	1.01	0.967	1.18	1.12	1.12	1.14	1.12	1.2	1.07	1.13	0.996	1.1
NCI-H1792	0.263	0.314	0.463	0.427	0.932	0.839	0.945	1.01	0.534	0.503	0.52	0.535	0.776	0.557	0.786	0.727	0.979	0.393
LCLC-97TM1	0.383	0.539	0.48	0.419	0.681	0.686	0.422	0.631	0.195	–	0.158	0.191	0.246	0.238	0.25	0.292	0.493	0.133
NCI-H1703	0.42	0.47	0.395	0.241	0.244	0.316	0.381	0.307	0.67	0.515	0.721	0.612	0.317	0.277	0.287	0.244	0.273	–
LCLC-103H	0.793	0.94	0.788	0.839	1.09	1	1.04	1.02	1.04	0.887	1.04	0.917	0.984	0.994	0.896	0.978	0.686	0.959
SK-LU-1	0.45	0.413	0.441	0.468	1.22	1.02	1.31	1.03	0.94	1.33	1.41	0.953	1	1.09	0.965	0.8	1.18	1.17
BEN	1.08	1.03	1.02	1.01	0.934	0.762	0.662	0.57	0.819	0.849	1.01	0.865	1.09	1.1	1.12	1.24	0.776	0.924
NCI-H1666	0.748	0.732	0.773	0.699	0.802	0.775	0.83	0.697	0.794	0.925	0.85	0.781	0.915	0.964	1.07	0.856	0.613	0.859
LC-2-ad	0.736	0.872	0.689	0.765	0.968	1.2	0.978	0.878	0.886	0.856	0.79	0.824	0.921	0.944	0.925	0.912	0.65	0.818
ChaGo-K-1	0.425	0.438	0.387	0.462	1.08	0.886	1.01	1.08	–	–	–	–	–	–	–	–	0.87	–
COR-L 105	0.672	0.796	0.558	0.606	0.719	0.537	0.744	0.75	0.805	1.18	0.727	0.896	1.09	1.18	1.07	0.728	0.719	1.07
NCI-H358	0.622	0.619	0.539	0.219	–	–	–	–	0.775	0.814	0.823	0.668	0.825	0.807	0.924	0.707	–	0.786
NCI-H1944	0.428	0.408	0.414	0.387	–	–	–	–	1.09	1.15	1.22	1.16	0.747	0.936	0.992	0.909	–	1.17
NCI-H1648	0.846	–	1.08	0.816	–	–	–	–	–	–	–	–	–	–	–	–	–	–
NCI-H2342	0.43	0.392	0.38	0.383	–	–	–	–	–	–	–	–	–	–	–	–	–	–
SK-MES-1	0.887	0.665	0.723	0.495	–	–	–	–	1.06	1.17	1.09	1.06	0.873	1.04	0.909	0.594	–	1.11
NCI-H2170	0.623	0.594	0.588	0.576	–	–	–	–	–	–	–	–	0.824	0.672	0.92	0.793	–	–
NCI-H1793	1.12	0.995	1	0.914	–	–	–	–	0.818	–	0.86	0.784	0.863	0.779	0.754	0.722	–	0.747
